Test results from patent US20120100990A1, “4 -AMINOPICOLINATES AND THEIR USE AS HERBICIDES” (SYNGENTA CROP PROTECTION LLC, priority 2009, published 2012).

Assays:
Format in all cases: in vivo
[1] = system: Ipomea hederaceae (IPOHE); assay: Pre-emergence biological efficacy, glasshouse pot test; conditions: Ipomoea hederacea, 312 h, 1,000 g/ha, evaluated after 13 days, 100=total damage, 0=no damage, read-out: Percentage damage caused to weed species, pre-emergence, IPOHE
Experimental: (§1) Seeds of Alopecurus myosuroides (ALOMY), Setaria faberi (SETFA), Echinochloa crus-galli (ECHCG), Solanum nigrum (SOLNI), Amaranthus retroflexus (AMARE) and Ipomea hederaceae (IPOHE) were sown in standard soil in pots. After cultivation for one day under controlled conditions in a glasshouse (at 24/16° C., day/night; 14 hours light; 65% humidity), the plants were sprayed with an aqueous spray solution derived from the formulation of the technical active ingredient in acetone/water (50:50) solution containing 0.5% Tween 20 (polyoxyethylene sorbitan monolaurate, CAS RN 9005-64-5) to give a final dose of 1000 or 250 g/ha of test compound. The test plants were then grown under controlled conditions in the glasshouse (at 24/16° C., day/night; 14 hours light; 65% humidity) and watered twice daily. After 13 days the test was evaluated (100=total damage to plant; 0=no damage to plant).

Setaria faberi (SETFA) [2] = assay: as above; conditions: 312 h, 1,000 g/ha, evaluated after 13 days, 100=total damage, 0=no damage, read-out: Percentage damage caused to weed species, pre-emergence, SETFA
Experimental: as §1

[3] = system: Echinochloa crus-galli (ECHCG); assay: as above; conditions: 312 h, 1,000 g/ha, evaluated after 13 days, 100=total damage, 0=no damage, read-out: Percentage damage caused to weed species, pre-emergence, ECHCG
Experimental: as §1

Solanum nigrum (SOLNI) [4] = assay: as above; conditions: 312 h, 1,000 g/ha, evaluated after 13 days, 100=total damage, 0=no damage, read-out: Percentage damage caused to weed species, pre-emergence, SOLNI
Experimental: as §1

[5] = system: Alopecurus myosuroides (ALOMY); assay: as above; conditions: 312 h, 1,000 g/ha, evaluated after 13 days, 100=total damage, 0=no damage, read-out: Percentage damage caused to weed species, pre-emergence, ALOMY
Experimental: as §1

[6] = system: Amaranthus retroflexus (AMARE); assay: as above; conditions: 312 h, 1,000 g/ha, evaluated after 13 days, 100=total damage, 0=no damage, read-out: Percentage damage caused to weed species, pre-emergence, AMARE
Experimental: as §1

[7] = system: Ipomea hederaceae (IPOHE); assay: Post-emergence biological efficacy, glasshouse pot test; conditions: Ipomoea hederacea, 312 h, 1,000 g/ha, evaluated after 13 days, 100=total damage, 0=no damage, read-out: Percentage damage caused to weed species, post-emergence, IPOHE
Experimental: as §1, with “for 8 days” for “for one day”, “grown on” for “grown”, “in a” for “in the”

Setaria faberi (SETFA) [8] = assay: as above; conditions: 312 h, 1,000 g/ha, evaluated after 13 days, 100=total damage, 0=no damage, read-out: Percentage damage caused to weed species, post-emergence, SETFA
Experimental: as §1, with “for 8 days” for “for one day”, “grown on” for “grown”, “in a” for “in the”

[9] = system: Echinochloa crus-galli (ECHCG); assay: as above; conditions: 312 h, 1,000 g/ha, evaluated after 13 days, 100=total damage, 0=no damage, read-out: Percentage damage caused to weed species, post-emergence, ECHCG
Experimental: as §1, with “for 8 days” for “for one day”, “grown on” for “grown”, “in a” for “in the”

Solanum nigrum (SOLNI) [10] = assay: as above; conditions: 312 h, 1,000 g/ha, evaluated after 13 days, 100=total damage, 0=no damage, read-out: Percentage damage caused to weed species, post-emergence, SOLNI
Experimental: as §1, with “for 8 days” for “for one day”, “grown on” for “grown”, “in a” for “in the”

[11] = system: Alopecurus myosuroides (ALOMY); assay: as above; conditions: 312 h, 1,000 g/ha, evaluated after 13 days, 100=total damage, 0=no damage, read-out: Percentage damage caused to weed species, post-emergence, ALOMY
Experimental: as §1, with “for 8 days” for “for one day”, “grown on” for “grown”, “in a” for “in the”

[12] = system: Amaranthus retroflexus (AMARE); assay: as above; conditions: 312 h, 1,000 g/ha, evaluated after 13 days, 100=total damage, 0=no damage, read-out: Percentage damage caused to weed species, post-emergence, AMARE
Experimental: as §1, with “for 8 days” for “for one day”, “grown on” for “grown”, “in a” for “in the”

Row | Structure (SMILES) | pest or weed control at 1000 g/ha [1] | pest or weed control at 1000 g/ha (Setaria faberi (SETFA) [2]) | pest or weed control at 1000 g/ha [3] | pest or weed control at 1000 g/ha (Solanum nigrum (SOLNI) [4]) | pest or weed control at 1000 g/ha [5] | pest or weed control at 1000 g/ha [6] | pest or weed control at 1000 g/ha [7] | pest or weed control at 1000 g/ha (Setaria faberi (SETFA) [8]) | pest or weed control at 1000 g/ha [9] | pest or weed control at 1000 g/ha (Solanum nigrum (SOLNI) [10]) | pest or weed control at 1000 g/ha [11] | pest or weed control at 1000 g/ha [12]
1 | C=Cc1c(NCc2ccccc2C(F)(F)F)cc(Cl)nc1C(=O)OC [Compound 74-12, 6-Chloro-3-ethenyl-4-[(2-trifluoromethyl-phenylmethyl)-amino]-pyridine-2-carboxylic acid methyl ester] | 0% | 0% | 0% | 0% | 0% | 0% | 10% | 10% | 20% | 70% | 10% | 100%
2 | CCO/C=C\c1c(NCc2ccco2)cc(-c2ccc(Cl)c(OC)c2F)nc1C(=O)OC [Compound 26-463, (Z)-6-(4-chloro-2-fluoro-3-methoxy-phenyl)-3-(2-ethoxyethenyl)-4-[(furan-2-ylmethyl)-amino]-pyridine-2-carboxylic acid methyl ester] | 0% | 10% | 10% | 10% | 10% | 0% | 40% | 0% | 0% | 60% | 0% | 20%
3 | COC(=O)c1nc(Cl)cc(NCc2ccco2)c1Br [Compound 26-17, 3-Bromo-6-chloro-4-[(furan-2-ylmethyl)-amino]-pyridine-2-carboxylic acid methyl ester] | 100% | 80% | 50% | 100% | 50% | 100% | 60% | 80% | 60% | 90% | 70% | 100%
4 | C=Cc1c(NCc2ccc(N(C)C)cc2)cc(Cl)nc1C(=O)OC [Compound 14-12, 6-Chloro-4-[(4-dimethylamino-phenylmethyl)-amino]-3-ethenyl-pyridine-2-carboxylic acid methyl ester] | 100% | 80% | 30% | 100% | 80% | 100% | 50% | 80% | 50% | 90% | 60% | 100%
5 | COC(=O)c1nc(Cl)cc(NCC2CCCCC2)c1Cl [Compound 67-2, 4- Cyclohexylmethyl amino-3,6-dichloro-pyridine-2-carboxylic acid methyl ester] | 80% | 60% | 10% | 90% | 20% | 100% | 70% | 20% | 20% | 100% | 30% | 100%
6 | COC(=O)c1nc(Cl)cc(NCc2cccs2)c1Cl [Compound 75-2, 3,6-Dichloro-4-(thiophen-2-ylmethylamino)-pyridine-2-carboxylic acid methyl ester] | 90% | 80% | 60% | 100% | 70% | 100% | 70% | 80% | 70% | 100% | 60% | 100%
7 | COC(=O)c1nc(Cl)c(Cl)c(NCc2ccccc2[N+](=O)[O-])c1C(F)(F)F [Compound 15-444, 5,6-dichloro-4-[(2-nitrophenyl-methyl)-amino]-3-trifluoromethyl-pyridine-2-carboxylic acid methyl ester] | 50% | 0% | 0% | 30% | 0% | 30% | 50% | 40% | 50% | 90% | 10% | 100%
8 | COC(=O)c1nc(Cl)cc(NCC2CCCO2)c1Cl (stereo not drawn) [Compound 70-2, 3,6-Dichloro-4-(tetrahydrofuran-2-ylmethylamino)-pyridine-2-carboxylic acid methyl ester] | 70% | 80% | 20% | 100% | 30% | 100% | 70% | 60% | 30% | 100% | 40% | 100%
9 | COC(=O)c1nc(Cl)cc(NCC2CC2)c1Cl [Compound 1-2, 4-Cyclopropylmethyl-amino-3,6-dichloro-pyridine-2-carboxylic acid methyl ester] | 100% | 90% | 90% | 100% | 80% | 100% | 80% | 90% | 70% | 90% | 90% | 100%
10 | COC(=O)c1nc(-c2ccc(Cl)c(OC)c2F)cc(NCc2ccco2)c1Cl [Compound 26-164, 3-chloro-6-(4-chloro-2-fluoro-3-methoxy-phenyl)-4-[(furan-2-ylmethyl)-amino]-pyridine-2-carboxylic acid methyl ester] | 100% | 90% | 90% | 100% | 50% | 100% | 90% | 90% | 70% | 100% | 70% | 100%
